Measured values from PMC3438169 (PLoS ONE, 2012).
Where a SMILES comes first, the peptide text is derived from it. The star is where a group is joined. Cbz = O=C(OCc1ccccc1)*

Legend:
HCT116 = assay: Cell viability (CellTiter-Glo), HCT116 with siRNA or mEF-G1 variants; assay type: cell-based, human; conditions: 7 days
Method: (§1) HCT116 (ATCC, CCL-247) and RKO (ATCC, CRL-2577) cell lines were maintained in a humidified incubator at 37°C and 5% CO2 in RPMI1640 supplemented with 10% FBS. Cell viability was determined using the CellTiter-Glo luminescent cell viability assay (Promega). […] Subsequently, 40 µl of CellTiter-Glo reagent was added to each well and luminescence recorded on an Envision plate reader (Perkin Elmer). Each treatment condition was tested in triplicate and compared to an equivalent volume of DMSO as control.
(§2) Non-targeting (NT) or GFM1 siRNA pools were obtained from Dharmacon (ON-TARGETplus SMART pool D-001810 and L-013685). HCT116 and RKO cells were reverse transfected in 6-well plates using RNAiMax (Invitrogen) and 25 nM siRNA. After 2 days, cells were harvested by trypsinization and re-plated into 6-well plates for western blot analysis or into 384-well plates for compound treatments and cell viability determination using CellTiter-Glo as described above.
(§3) The human GFM1 cDNA (encoding mEF-G1, Table 2) was mutagenized in pENTR221 (Invitrogen) using QuikChangeII XL site-directed mutagenesis (Stratagene). The following point mutations were introduced: C1355T (encoding S452L), C1481T (encoding S494F) and T2078A (encoding L693Q). The GFM1 cDNAs were then subcloned into the mammalian expression vector pLenti4/TO/V5 using LR clonase II (Invitrogen) and sequence-verified. The pLenti4 constructs were then co-transfected with a lentiviral plasmid mix (encoding LP1, LP2 and VSV-G) into 293T cells, and viral particles were harvested after 72 h and used to infect HCT116 and RKO cells. Stable cell lines were generated by selection with 400 µg/ml Zeocin and plated into 6-well plates for western blot analysis or into 384-well plates for compound treatments and cell viability determination using CellTiter-Glo as described above.

RKO = assay: Cell viability (CellTiter-Glo), RKO with siRNA or mEF-G1 variants; assay type: cell-based, human; conditions: 7 days
Method: as §1, §2, §3

[1] = test system: Cox4-GFP labeled mitochondria; assay: Microscopy of mitochondrial morphology (Cox4-GFP); assay type: cell-based, S. cerevisiae; conditions: Benomyl 3× IC30 (90 µM), 30 minutes
Method: BY4741 cells containing a genomic COX4-GFP fusion where grown to mid-log phase in glucose and ethanol/glycerol media and incubated with the corresponding concentrations of compound for 30 minutes. Aliquots where spotted on microscopy slides and directly imaged on a Zeiss Axiovert 200Mot microscope equipped with a AxioCam MRm digital camera using the Plan-Neofluar 100×, 1.3 oil PH3 objective (Carl Zeiss, Feldbach, Switzerland). A z-stack consisting of 3 images spaced by […] in the filterset 38 (eGFP) channel and a phase-contrast image where acquired. False colors where applied to the GFP images (green) and phase contrast (blue) and the images merged into one plane and scaled to 8-bit. Representative, individual cells where selected and assembled into a panel using Adobe Photoshop (Adobe Systems Inc.).

[2] = test system: EF-G in complex with the ribosome; conditions: ref [22], [23], [24]; cited from earlier work
From the text: This may stand in contrast to the characterized inhibitor of EF-G, fusidic acid, which binds at the GDP/GTP binding pocket and interferes with the post translocation release of EF-G bound on the riboso ...

[3] = test system: 512 human cancer cell lines; assay: Compound correlation analysis across the cell line panel; assay type: cell-based; conditions: Pearson correlation across 512 cell lines
Method: All cell lines were maintained in humidified incubators at 37°C and 5% CO2 in DMEM or RPMI1640 supplemented with 10% FBS. Cells were seeded into 1536-well plates at a density of 250 cells per well, allowed to adhere for 12–24 hours, then treated for 3 days with pharmacological agents in 8-point dose response (semi-log from 8 µM to 2.5 nM), and cell viability was assessed using CellTiter Glo (Promega). […] Compound correlation analysis was performed by calculating a Pearson correlation for each compound pair (using either IC50 or Amax values) across the 512 cell lines. We required data values for a minimum of 50 cell lines in common to avoid spuriously high correlations.

angiogenesis = conditions: p27-dependent mechanism; ref [6], [7], [8], [9]; cited from earlier work
From the text: (§4) Natural products constitute a major resource for the identification of bioactive molecules. Indeed, most antibacterials in current use are natural products or semisynthetic derivatives thereof. The argyrins are natural peptides produced by myxobacteria and actinomycetes that have an intriguing antibacterial spectrum of activity, [2], [3]. This includes the intrinsically drug resistant organism Pseudomonas aeruginosa, but not other Gram negatives tested, such as Escherichia coli or Salmonella typhimurium, unless the cells are compromised in their outer membrane permeability barrier, p ...

apoptosis = conditions: ref [6], [7], [8], [9]; cited from earlier work
From the text: as §4

proteasome = conditions: ref [6], [7], [8], [9]; cited from earlier work
From the text: as §4

In the case of `CC(C)C[C@@H](C=O)NC(=O)[C@H](CC(C)C)NC(=O)[C@H](CC(C)C)NC(=O)OCc1ccccc1` [MG132, reference compound] (Cbz-Leu-Leu-Leu-aldehyde), the “Sensitivity change on knock down of mEF-G1 (in words)” value (HCT116; HCT116, GFM1 siRNA) is reported as “without altering sensitivity”, the “Sensitivity change on expression of mEF-G1 L693Q (in words)” value (HCT116; HCT116, mEF-G1 L693Q) is reported as “without altering sensitivity” and the “Sensitivity change on knock down of mEF-G1 (in words)” value (RKO; GFM1 siRNA) is reported as “without altering sensitivity”. For the same molecule, the “Sensitivity change on expression of mEF-G1 L693Q (in words)” value (RKO; mEF-G1 L693Q) was “without altering sensitivity”.

In the case of `CCCCNC(=O)n1c(NC(=O)OC)nc2ccccc21` [benomyl, reference compound], the “Effect on mitochondria (in words)” value [1] is reported as “had no effect on mitochondria”.

For `CC(=O)O[C@H]1C[C@@]2(C)[C@@H](C[C@@H](O)[C@H]3[C@@]4(C)CC[C@@H](O)[C@@H](C)[C@@H]4CC[C@@]32C)/C1=C(\CCC=C(C)C)C(=O)O` [fusidic acid], the “Binding to EF-G (in words)” value [2] is listed as “binds EF-G in complex with the ribosome”.

For argyrin A, the “Correlation of IC50 and maximal activity (Amax) profile with argyrin B (in words)” value [3] is given as “strong correlation”, the “Angiogenesis (in words)” value (angiogenesis) is given as “blocks angiogenesis” and the “Apoptosis (in words)” value (apoptosis) is given as “induces apoptosis”. The “Proteasome inhibition (in words)” value (proteasome) was “inhibits the proteasome”.
